Measurements published in patent publication US12440576B2, “Antibody drug conjugates comprising sting agonists” (Mersana Therapeutics, Inc., priority 2020, dated 2025).
Read-outs that look alike come from different tables or passages of the source.

Assays:
[1] = system: STING pathway in THP1-Dual cells co-cultured with OVCAR3 cancer cells; assay: Cancer cell/THP1-IRF3-Luciferase reporter cell co-culture assay, OVCAR3 (Example 26A); type: cell-based; settings: Homo sapiens, OVCAR-3, 20 h
Experimental: Induction of STING pathway in immune cells: The induction of STING pathway in immune cells by NaPi2b-targeted STING ADC was evaluated by a cancer cell/THP1-IRF3-Luciferase reporter cell co-culture assay. OVCAR3 human ovarian carcinoma cells were seeded in 96-well CellBind surface tissue culture plates (15,000/well) and allowed to attach for 6 hours in RPMI-1640 medium with 10% FBS and 1% penicillin/streptomycin. […] THP1-dual reporter cells (30,000) were then added to each well and the incubation continued for 20 hours at 37° C. in a humidified atmosphere of 5% CO2. Cell culture supernatants (20 μl) from each incubated sample was added to resuspended QUANTI-Luc (50 l) and the luminescent signal was measured immediately using a SpectraMax M5 plate reader (Molecular Devices). The EC50 value was determined from the dose response curve.

[2] = system: STING wild type (sgNT-2) SKBR3 cells; assay: PBMC killing assay, STING wild type SKBR3 NucRed cells (Examples 30, 30A); type: cell-based, human; settings: 100, 25, 5 and 1 nM payload
CXCL10 induction [3] = assay: CXCL10 induction in SKBR3 cancer cell/PBMC and monocyte co-cultures (Example 33); type: cell-based; settings: Homo sapiens
[4] = system: Type III Interferons IFNλ1/IFNλ3 (IL29/IL28b); assay: IFNλ1/IFNλ3 (IL29/IL28b) production, STING knock out SKBR3/PBMC co-cultures (Example 42); type: cell-based, human
Experimental: (§1) Type III IFN induction: Co-cultures of SKBR3 cells and PBMCs were setup as described above to analyze the induction of Type III Interferons in supernatants 24 hours post treatment using a human IL29/IL28b ELISA kit.

[5] = system: OVCAR3-NucRed cancer cells; assay: OVCAR3-NucRed co-cultures with PBMCs, enriched monocytes or CD16-depleted monocytes (Example 31); type: cell-based, human; settings: 20 and 4 nM payload
Text: Frozen human PBMCs (1×10^8) were thawed and aliquoted into three tubes: one aliquot was subjected to human monocyte enrichment [StemCell Technologies] (“CD16 depleted monocytes”), one aliquot was subjected to human monocyte enrichment without CD16 depletion [StemCell Technologies] (“enriched monocytes”), and one aliquot was not subjected to enrichment (“PBMCs”). For flow cytometry, cells (50,000) from each group were transferred to a U-bottom 96-well plate in 4-replicates, washed with PBS and stained with live/dead fixable Aqua dead cell staining dye (Molecular Probes) followed by staining with fluorophore conjugated target specific (triplicates) or isotype control antibodies (Pacific Blue anti-human CD14, FITC anti-human CD3, APC/Cy7 CD16, PE anti-human CD32, PE/Cy7 anti-human CD64). Cells were fixed and surface expression of the proteins of interest was determined by flow cytometry analysis on a MACSQuant flow cytometer. Data analysis was performed by FlowJo software. Table 3 provides the frequency (% of single/live cells)) of CD14−/CD16+, CD14+/CD16+, CD14−/CD32+, CD14+/CD32+, CD14−/CD64+, CD14+/CD64+, and CD14−/CD3+ cells in PBMCs, enriched monocytes, and CD16-depleted monocyte populations
OVCAR3-NucRed cells (generated as described in Example 28) were seeded (15,000/well) in 96-well CellBind surface tissue culture plates (Corning) and allowed to attach for 6 hours in RPMI-1640 medium with 10% FBS and 1% penicillin/streptomycin. Culture medium was replaced with fresh media (50 μL). […] PBMCs, enriched monocytes, and CD16-depleted monocytes were prepared as described in Example 29. Live PBMCs (30,000/well), enriched monocytes (20,000/well), and CD16-depleted monocytes (20,000/well) were then added to the wells in culture medium (50 μL) and the plate was placed in an IncuCyte© live cell imaging instrument in an incubator (37° C., 5% 02) and scanned every 4 hours over 2 days. The number of red objects (cancer cells) were quantified using the IncuCyte© Zoom software. Red object confluency in each well was normalized to its own T=0 time point red object confluency.

[6] = system: Type III Interferons IFNλ1/IFNλ3 (IL29/IL28b); assay: IFNλ1/IFNλ3 (IL29/IL28b) production, STING wild type SKBR3/PBMC co-cultures (Example 42); type: cell-based, human
Experimental: as §1

SKBR3 NucRed cells = assay: Cancer cell killing activity in SKBR3 NucRed/PBMC or primary human monocyte co-cultures (Example 33); type: cell-based
Experimental: 20,000 cells (per well) SKBR3 NucRed cells were seeded in 96-well tissue culture plates and allowed to attach 6 hours in 50 μL of RPMI-1640 medium with 10% FBS and 1% penicillin/streptomycin.

[7] = system: IL29/IL28b induction (IFNλ1/λ3); assay: Type III IFN induction, human IL29/IL28b ELISA, SKBR3/PBMC co-cultures (Example 33); type: cell-based; settings: SK-BR-3, SKBR3/PBMC co-culture, supernatants 24 hours post treatment
Experimental: as §1

[8] = system: THP1-Dual cells cultured on NaPi2b recombinant peptide coated plates; assay: THP1 luciferase reporter cells on NaPi2b peptide coated plates (Example 27A); type: cell-based; settings: Homo sapiens, 20 h
Experimental: Human NaPi2b-derived peptide ([sequence]) was coated onto the surface of each well of a 96-well plate by incubation with the peptide (1p g/mL in PBS), overnight at 4° C. The wells were then washed 1× with PBS-T and blocked by incubation with BSA (3% in PBS-T) for 1 hour at room temperature. […] THP1-dual reporter cells (50,000) were added into each well and incubated for 20 hours at 37° C. in a humidified atmosphere of 5% CO2. Cell culture supernatants (20 μl) from each incubated sample was added to resuspended QUANTI-Luc (50 μl) and the luminescent signal was measured immediately using a SpectraMax M5 plate reader (Molecular Devices). The EC50 value was determined from the dose response curve.

[9] = system: CXCL10 produced by the SKOV3 cancer cell monocultures; assay: CXCL10 ELISA of SKOV3 monocultures with conditioned media from immune cells (Example 36); type: cell-based, human; settings: 24 hours
Experimental: Conditioned media was prepared by culturing 1.5×10^6/mL PBMCs (two different donors), 1×10^6/mL primary monocytes (isolated from PBMCs from two different donors, as described in Example 29), or 1×10^6/mL THP1 cells in RPMI-1640 medium with 10% FBS and 1% penicillin/streptomycin for 24 hours at 37° C., 5% O2, in an incubator. The supernatants were collected and spun down at 2000 rpm for 10 min to remove any cells. SKOV3 cells were seeded in 96 well plates (30,000/well) and allowed to attach overnight in RPMI-1640 medium with 10% FBS and 1% penicillin/streptomycin. […] After incubation for 24 hours at 37° C., 5% O2 supernatants from the 96 well plates were analyzed for CXCL10 production using a human CXCL10 ELISA kit.

[10] = system: STING pathway in THP1-Dual cells co-cultured with SKBR3 cancer cells; assay: Cancer cell/THP1-IRF3-Luciferase reporter cell co-culture assay, SKBR3 (Example 26B); type: cell-based; settings: Homo sapiens, SK-BR-3
[11] = system: THP1-Dual cells cultured on Her2 recombinant protein coated plates; assay: THP1 luciferase reporter cells on Her2 protein coated plates (Example 27B); type: cell-based; settings: Homo sapiens
Experimental: The wells were then washed 1× with PBS-T and blocked by incubation with BSA (3% in PBS-T) for 1 hour at room temperature. […] THP1-dual reporter cells (50,000) were added into each well and incubated for 20 hours at 37° C. in a humidified atmosphere of 5% CO2. Cell culture supernatants (20 μl) from each incubated sample was added to resuspended QUANTI-Luc (50 μl) and the luminescent signal was measured immediately using a SpectraMax M5 plate reader (Molecular Devices). The EC50 value was determined from the dose response curve.

[12] = system: STING pathway in THP1-Dual cells co-cultured with SKOV3 cancer cells; assay: Cancer cell/THP1-IRF3-Luciferase reporter cell co-culture assay, SKOV3 (Example 34); type: cell-based; settings: Homo sapiens, SK-OV-3, 20 h
Experimental: The induction of STING pathway in immune cells by Her2-targeted STING ADC was evaluated by a cancer cell/THP1-IRF3-Luciferase reporter cell co-culture assay. SKOV3 human ovarian adenocarcinoma cells were seeded in 96-well CellBind surface tissue culture plates (20,000/well) and allowed to attach for 6 hours in McCoy's 5a medium with 10% FBS and 1% penicillin/streptomycin. […] 50,000 THP1-dual reporter cells were then added to each well and the incubation continued for 20 hours at 37° C. in a humidified atmosphere of 5% CO2. Cell culture supernatants (20 μL) from each incubated sample was added to resuspended QUANTI-Luc (50 μL) and the luminescent signal for IRF3 was measured immediately using a SpectraMax M5 plate reader (Molecular Devices). The EC50 value was determined from the dose response curve.

CXCL10 induction [13] = assay: CXCL10 induction in Calu3 cancer cell/PBMC co-cultures (Example 35); type: cell-based; settings: Homo sapiens, Calu-3, read-out: EC50 - PBMC (CXCL10 induction)
Experimental: CXCL10 induction: Calu3 human lung adenocarcinoma cells were seeded in 96-well tissue culture plates and allowed to attach overnight at 37° C., 5% CO2 in 100 μL of EMEM medium with 10% FBS and 1% penicillin/streptomycin. Culture medium was replaced with fresh media (100 μL).

[14] = system: SKOV3 human ovarian cancer cells; assay: SKOV3 xenograft, Fc mutant HER2 ADCs (Example 54); type: in vivo, mouse; settings: iv day 1, n=10: Conjugate 8j 2.71/0.10, diABZI IV STING agonist 0/5 mg/kg
Experimental: Tumors were measured twice weekly using digital calipers and tumor volumes were calculated using the formula: tumor volume (mm^3)=(width^2×length)/2. Body weights were recorded daily for the first week and twice weekly thereafter. Animals remained on study until individual tumor volume reached ≥1000 mm^3≥1500 mm^3 or as indicated. Percent change in body weight was calculated using the formula: body weight change (%)=((weight^study day X−weight^study day 1)/weight^study day 1)*100. Tumor volumes are reported as mean±standard error of the mean (SEM). Tumor growth inhibition (% TGI) was defined as the percent difference in mean tumor volumes (MTVs) between treated and control groups. Tumor size was measured throughout each efficacy study to determine tumor growth inhibition (TGI). Percent tumor regression was calculated using the formula: % regression=(1−(mean tumor volume^final)/(mean tumor volume^day 1))*100. A partial response (PR) is defined as a tumor volume of 50% or less for day 1 volume for three consecutive measurements and equal to or greater than 13.5 mm^3 for at least one of these three measurements. A complete response (CR) is defined as a tumor volume less than 13.5 mm^3 for three consecutive measurements. A tumor-free survivor (TFS) is classified as having a CR at the end of study. […]

OVCAR3-NucRed cells = assay: OVCAR3-NucRed/PBMC co-culture killing assay (Example 28B); type: cell-based, human
Experimental: OVCAR3 human ovarian carcinoma cells stably expressing nuclear restricted mKate fluorescent red protein were generated by transduction with IncuCyte© NucLight Red Lentivirus reagent. Stably transduced cells (designated as OVCAR3-NucRed cells) selected in puromycin-containing media (2 μg/mL) for two days, were seeded in 96-well tissue culture plates (8,000/well) and allowed to attach overnight in RPMI-1640 medium with 10% FBS and 1% penicillin/streptomycin. Culture medium was replaced with fresh media (50 μL). […] Frozen human peripheral blood mononuclear cells (PBMCs) were thawed according to the supplier's instructions and were added to each well (40,000 PBMCs in 50 μL media) and the plate was placed in an IncuCyte© live cell imaging instrument in an incubator (37° C., 5% 02) and scanned every 4 hours over 2 days. The number of red objects (cancer cells) were quantified using the IncuCyte© Zoom software. Red object confluency in each well was normalized to its own T=0 time point red object confluency.
OVCAR3-NucRed cells were seeded in 96-well tissue culture plates (20,000/well) and allowed to attach 6 hours in RPMI-1640 medium with 10% FBS and 1% penicillin/streptomycin. Culture medium was replaced with fresh media (50 μL). […] The number of red objects (cancer cells) were quantified using the IncuCyte© Zoom software. […]

How did the EC50 [1] turn out when `CCn1nc(C)cc1C(=O)Nc1nc2cc(C(N)=O)cc(OC)c2n1C/C=C/Cn1c(NC(=O)c2cc(C)nn2CC)nc2cc(C(N)=O)cc(OCCCO)c21` [Compound 1] was run?
The EC50 was 6.8 nM.

And the “killing of SKBR3 cells/PBMC co-cultures (FIG. 3A)” value [2]?
Its value is “showed activity in STING wild type (sgNT-2) SKBR3 cells/PBMC co-cultures at 100 nM only”.

And the EC50 (CXCL10 induction [3]; Monocyte, read-out: EC50 - Monocyte (CXCL10 induction))?
The EC50 was 31.1 nM.

And the EC50 (CXCL10 induction [3]; SK-BR-3, read-out: EC50 - PBMC (CXCL10 induction))?
Its EC50 is 26.1 nM.

What about the “Bmax (IL29/IL28b production)” value ([4]; STING knock out (sgRNA#3) SKBR3/PBMC) of the same molecule?
The value was 0 OD450.

And the “Bmax (IL29/IL28b production)” value ([4]; STING knock out (sgRNA#4) SKBR3/PBMC)?
The value was 0 OD450.

What about the “killing of OVCAR3-NucRed cancer cells by CD16 depleted monocytes (FIG. 5C)” value [5] of the same molecule?
The value was “induced cancer cell killing”.

What about the “killing of OVCAR3-NucRed cancer cells by PBMCs (FIG. 5A)” value [5] of the same molecule?
Its value is “only in enriched monocyte and CD16-depleted monocyte co-cultures”.

And the “killing of OVCAR3-NucRed cancer cells by enriched monocytes (FIG. 5B)” value [5]?
Its value is “induced cancer cell killing”.

And the EC50 ([6]; Homo sapiens, SK-BR-3, read-out: EC50 (IL29/IL28b production))?
The EC50 was 49.3 nM.

And the “Bmax (IL29/IL28b production)” value ([6]; STING wild type SKBR3/PBMC)?
The value was 0.5 OD450.

What about the IC50 (SKBR3 NucRed cells; SK-BR-3, read-out: IC50 - Monocyte (killing activity)) of the same molecule?
The IC50 was 8.32 nM.

And the IC50 (SKBR3 NucRed cells; SK-BR-3, read-out: IC50 - PBMC (killing activity))?
Its IC50 is 9.51 nM.

What about the EC50 [7] of the same molecule?
The EC50 was 28.3 nM.

And the EC50 [8]?
Its EC50 is 5.18 nM.

What about the “O.D. 450 + 100 nM Compound 1 (CXCL10)” value ([9]; Conditioned Media: Monocyte (Donor1)) of the same molecule?
The value was 1.62 +/− 0.050 O.D. 450.

And the “O.D. 450 + 100 nM Compound 1 (CXCL10)” value ([9]; Conditioned Media: Monocyte (Donor2))?
Its value is 0.97 +/− 0.142 O.D. 450.

What about the “O.D. 450 + 100 nM Compound 1 (CXCL10)” value ([9]; Conditioned Media: None) of the same molecule?
The value was 0.16 +/− 0.038 O.D. 450.

What about the “O.D. 450 + 100 nM Compound 1 (CXCL10)” value ([9]; Conditioned Media: PBMC (Donor1)) of the same molecule?
The value was 2.22 +/− 0.084 O.D. 450.

And the “O.D. 450 + 100 nM Compound 1 (CXCL10)” value ([9]; Conditioned Media: PBMC (Donor2))?
The value was 0.83 +/− 0.086 O.D. 450.

What about the “O.D. 450 + 100 nM Compound 1 (CXCL10)” value ([9]; Conditioned Media: THP1) of the same molecule?
The value was 0.18 +/− 0.043 O.D. 450.

What about the EC50 [10] of the same molecule?
The EC50 was 7.4 nM.

And the EC50 [11]?
The EC50 was 8.8 nM.

Which results are given for `CCc1nc(C)oc1C(=O)Nc1nc2cc(C(N)=O)cnc2n1C/C=C/Cn1c(NC(=O)c2oc(C)nc2CC)nc2cc(C(N)=O)cc(OCCCO)c21` [Compound 30]?
EC50 [12]: 38.5 nM; EC50 (CXCL10 induction [13]): 160 nM

For diABZI IV STING agonist, which “PR (partial responses)” value [14] is on record?
The value was 7.

B1: Conjugate 81: "XMT-1535 was used instead of XMT-1519 and 2-(2-(2-(2-aminoethoxy)ethoxy)ethoxy)acetic acid was incorporated" instead of (3-(2-(2-aminoethoxy)ethoxy)propanoyl)-L-alanine (conjugate, chains of the INN, looked up)
VH: QVQLVQSGAEVVKPGASVKMSCKASGYTFTGYNIHWVKQAPGQGLEWIGAIYPGNGDTSYKQKFRGRATLTADTSTSTVYMELSSLRSEDSAVYYCARGETARATFAYWGQGTLVTVSS
VL: DIQMTQSPSSLSASVGDRVTITCSASQDIGNFLNWYQQKPGKTVKVLIYYTSSLYSGVPSRFSGSGSGTDYTLTISSLQPEDFATYYCQQYSKLPLTFGQGTKLELK
modifications: drug-linker conjugate with PEG linker
With B1 as the molecule, how does the “lower payload concentration compared to Compound 1 for induction of cancer cell killing” value (OVCAR3-NucRed cells) read?
The value was 100 ×.

What about the “cancer cell killing by PBMCs (red object numbers, FIG. 1B)” value (OVCAR3-NucRed cells; 1-100 nM payload) of the same molecule?
The value was “robust induction of cancer cell killing”.
